Test results published in US12521384B2, “Drug delivery composition using crosslinked hyaluronic acid and manufacturing method therefor” (JP cares, priority 2020, dated 2026).

Key:
[1] = Drug release behavior of bupivacaine (dialysis bag in PBS, RP-HPLC); assay type: physicochemical; settings: 8 hours; PBS 37° C., 100 rpm
Description: By mixing the crosslinked hyaluronic acid gels, JPD001, JPD004 and (mixture of JPD001 and JPD004 at a weight ratio of 1:1) comprising the crosslinked hyaluronic acid solid prepared in Example 1 at a content of 2% by weight, which are Samples 1-1, 1-4 and 1-5 of Example 1 of 6 g, respectively, and 0.75% by weight bupivacaine solution 3 g, a drug preparation was prepared. A preparation in which non-crosslinked hyaluronic acid having a molecular weight of 1,500 kDa (repeated unit molecular weight 401.3) 2% by weight and a preparation comprising only the bupivacaine drug were prepared, respectively, as a control group.
The prepared drug preparation was put in a dialysis bag (MWCO: 12 K-14 K Da), separately. Then, the dialysis bag was immersed into a tube with 15 ml phosphate buffer solution. The 50 mL conical tube in which the immersed dialysis bag was put was placed in a shaking tank maintained at 37° C. and shaken at 100 rpm horizontally. Then, at scheduled time intervals, a release medium (PBS) aliquot of 1.5 mL was collected and the entire release medium was replaced with new PBS to maintain a sink condition. Quantification of the released bupivacaine was determined by reverse-phase high-performance liquid chromatography (RP-HPLC) using a ZORBAX Eclipse XDB C18 column (4.6 mm×250 mm, 5 μm) and acetonitrile/pH 8.0 buffer (60:40, v/v) for 10 minutes or more.

Sprague-Dawley rats = test: Mechanical allodynia degree (threshold), von Frey up-down method, after plantar incision; assay type: in vivo; settings: Gb: Ro 0.75% 300 + SC 300 (ropivacaine 2.25 mg); for threshold value (g), group average: once near sciatic nerve
Description: Specific pathogen-free (SPF) Sprague-Dawley rats [Cr1:CD (Sprague Dawley)] (Producer: Orient Bio Inc. (322, Galmachi-ro, Jungwon-gu, Seongnam-si, Gyeonggi-do)) were prepared according to the following condition. • (1) Number of animals at acquisition: male 28 rats • (2) Age at acquisition: about 7-week-old • (3) Body weight range at acquisition: 199.29 to 222.35 g • (4) Age at start of administration: about 8-week-old • (5) Body weight range at start of administration: 265.63 to 294.00 g • (6) Number of animals used: 24 rats • (7) Group separation
After disinfecting the left plantar part of the prepared test animals under general anesthesia, the skin and fascia with a length of 1 cm were incised in the longitudinal direction starting from the part 0.5 cm away from the tip of the back of the foot. The sole muscle (plantar muscle) of the incised part was lifted with forceps to separate 1 cm in length. […] All Ga to Gd doses […] were equally administered near the nerve tissue, and the number of animals comprised in the experimental group were 6.
As a method for measuring the degree of mechanical allodynia after preparing the test groups, a white rat was placed in a wire mesh cage with a net eye size of 2×2 mm and acclimatized for 15 minutes or more, and then the continuous reaction was evaluated by an up-down method using 8 consecutive von Frey filaments (1, 2, 4, 6, 8, 15, 26, 60 g, Stoelting, USA) when the movement of the rat became quiet. […] It was progressed as the weak filament was stimulated when the positive reaction was shown by stimulating from the von Frey filament in the center, and the strong filament was stimulated when there was no positive reaction. By the above method, measurement was performed before, and at 1, 2, 4, 8, 24, 48, 72, 120, 168 hours after administration of the test substance. For interpretation of the result of the pain behavior test, the case in that avoidance reaction was shown or the foot was lifted up on the net while in contact with a plastic plate was determined as positive. Stimulation was given twice at an interval of 3-5 minutes, and using the positive threshold among them, a response change curve with time was obtained.
Pain threshold values were measured before and at 1, 2, 4, 8, 24, 48, 72, 120, 168 after administration of the test substance of each animal of the Ga to Gd group test groups, and the average of the threshold values of each test group was calculated. In Table 4 below, the threshold value (g) measured over time of drug administration was shown.

Row | SMILES | cumulative release amount of bupivacaine [1] | time at which the pain was completely recovered (Sprague-Dawley rats) | threshold value (g), group average (Sprague-Dawley rats; 0 hr (before administration)) | threshold value (g), group average (Sprague-Dawley rats; 1 hr) | threshold value (g), group average (Sprague-Dawley rats; 2 hr) | threshold value (g), group average (Sprague-Dawley rats; 4 hr) | threshold value (g), group average (Sprague-Dawley rats; 8 hr) | threshold value (g), group average (Sprague-Dawley rats; 24 hr) | threshold value (g), group average (Sprague-Dawley rats; 48 hr) | threshold value (g), group average (Sprague-Dawley rats; 72 hr) | threshold value (g), group average (Sprague-Dawley rats; 120 hr) | threshold value (g), group average (Sprague-Dawley rats; 168 hr)
1 | CCCCN1CCCCC1C(=O)Nc1c(C)cccc1C (stereo not drawn) [bupivacaine] | 99% |  |  |  |  |  |  |  |  |  |  | 
2 | CCCN1CCCC[C@H]1C(=O)Nc1c(C)cccc1C [Ropivacaine, ropivacaine] |  | 120 h | 60 g | 60 g | 60 g | 37.3 g | 31.7 g | 28.0 g | 17.5 g | 29.8 g | 60 g | 60 g
